Four compounds from ChEMBL document CHEMBL1157315, “Saponins from Polygala japonica and their effects on a forced swimming test in mice” (2006) can be followed below.

The test system of test [1] is Mus musculus. Nature of the test: Antidepressant activity in ICR mouse assessed as reduction in immobility time of forced swimming at 10 mg/kg, po administered once daily for 5 days by forced swimming test relative to control. The format is functional. Set-up: scale not given: the % may be the effect or the level left.
The test system of test [2] is Mus musculus. Nature of the test: Antidepressant activity in ICR mouse assessed as reduction in immobility time of forced swimming at 100 mg/kg, po administered once daily for 5 days by forced swimming test relative to control. Also on record: scale not given: the % may be the effect or the level left. The format is functional.

`CNCCC(Oc1ccc(C(F)(F)F)cc1)c1ccccc1` (configuration not stated) [FLUOXETINE]: the Activity with Mus musculus [1] was found to be 50.7%.

In the case of `C[C@@H]1O[C@@H](O[C@H]2[C@H](OC(=O)[C@]34CCC(C)(C)C[C@H]3C3=CC[C@@H]5[C@@]6(C)C[C@H](O)[C@H](O)[C@@](C)(C(=O)O)[C@@H]6CC[C@@]5(C)[C@]3(C)CC4)O[C@H](CO)[C@@H](O)[C@@H]2O)[C@H](O)[C@H](O)[C@H]1O[C@@H]1OC[C@@H](O)[C@H](O)[C@H]1O` [POLYGALASAPONIN E], the values for the Activity in the test on Mus musculus [1] and in the test with Mus musculus [2] were 35.4% and 58.1%, respectively.

Take `C[C@@H]1O[C@@H](O[C@H]2[C@H](OC(=O)[C@]34CCC(C)(C)C[C@H]3C3=CC[C@@H]5[C@@]6(C)C[C@H](O)[C@H](O)[C@@](C)(C(=O)O)[C@@H]6CC[C@@]5(C)[C@]3(C)CC4)O[C@H](CO)[C@@H](O)[C@@H]2O)[C@H](O)[C@H](O[C@H]2OC[C@@](O)(CO)[C@@H]2O)[C@H]1O[C@@H]1OC[C@@H](O)[C@H](O)[C@H]1O` [POLYGALASAPONIN H]: the Activity with Mus musculus [1] was 45.8%; in the test on Mus musculus [2], 51.3%.

For `C[C@@H]1O[C@@H](O[C@H]2[C@H](OC(=O)[C@]34CCC(C)(C)C[C@H]3C3=CC[C@@H]5[C@@]6(C)C[C@H](O)[C@H](O[C@@H]7O[C@H](CO)[C@@H](O)[C@H](O)[C@H]7O)[C@](C)(CO)[C@@H]6CC[C@@]5(C)[C@]3(C)CC4)O[C@H](CO)[C@@H](O[C@@H]3OC[C@@H](O)[C@H](O)[C@H]3O)[C@@H]2O[C@@H]2OC[C@](O)(CO)[C@H]2O)[C@H](O)[C@H](O)[C@H]1O` [POLYGALASAPONIN V], the Activity with Mus musculus [1] is 16.8%; with Mus musculus [2], 16.6%.
